How the values were obtained:
Format in all cases: in vivo
[1] = test system: winter barley (Hordeum vulgare); assay: Test B postemergence plant response; conditions: for Plant response rating, Barley: Postemergence, scale 0 to 100, 0 no effect, 100 complete control
Procedure, shortened: (§1)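 Test compounds were applied postemergence to plants 2 to 18 cm tall (1- to 4-leaf stage). After 13 to 15 days in a greenhouse, each species was visually compared with untreated controls and rated 0 (no effect) to 100 (complete control).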

[2] = test system: windgrass (Apera spica-venti); assay: Test B postemergence plant response; conditions: for Windgrass plant response rating: postemergence, 0-100 scale; for Plant response rating, Windgrass: Postemergence
Procedure, shortened: as §1

[3] = test system: lambsquarters (Chenopodium album); assay: Test B pre-/postemergence plant response
Procedure, shortened: (§2)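 Seeds were sown and sprayed preemergence, while plants at 2 to 18 cm (1- to 4-leaf stage) got postemergence sprays. Compounds were formulated in a non-phytotoxic solvent mixture with surfactant. After 13 to 15 days in a greenhouse, injury was rated visually against untreated controls, 0 (no effect) to 100 (complete control).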

[4] = test system: yellow nutsedge (Cyperus esculentus); assay: Test B pre-/postemergence plant response
Procedure, shortened: as §2

[5] = test system: blackgrass (Alopecurus myosuroides); assay: Test B pre-/postemergence plant response
Procedure, shortened: as §2

[6] = test system: common (oilseed) sunflower (Helianthus annuus); assay: Test B pre-/postemergence plant response; conditions: Preemergence
Procedure, shortened: as §2

[7] = test system: wheat (Triticum aestivum); assay: Test B pre-/postemergence plant response
Procedure, shortened: as §2

[8] = test system: large crabgrass (Digitaria sanguinalis); assay: Test B pre-/postemergence plant response
Procedure, shortened: as §2

[9] = test system: catchweed bedstraw (Galium aparine); assay: Test B pre-/postemergence plant response; conditions: Preemergence
Procedure, shortened: as §2

[10] = test system: johnsongrass (Sorghum halepense); assay: Test B pre-/postemergence plant response
Procedure, shortened: as §2

[11] = test system: common ragweed (Ambrosia elation); assay: Test B pre-/postemergence plant response
Procedure, shortened: as §2

wild oat (Avena fatua) = assay: Test B pre-/postemergence plant response
Procedure, shortened: as §2

[12] = test system: giant foxtail (Setaria faberii); assay: Test B pre-/postemergence plant response
Procedure, shortened: as §2

[13] = test system: cocklebur (Xanthium strumarium); assay: Test B pre-/postemergence plant response
Procedure, shortened: as §2

[14] = test system: goosegrass (Eleusine indica); assay: Test B pre-/postemergence plant response
Procedure, shortened: as §2

[15] = 8 g ai/ha, postemergence, 0-100 scale
[16] = 16 g ai/ha, postemergence, 0-100 scale
[17] = Postemergence, 31 g ai/ha, scale 0 to 100
[18] = Postemergence, 62 g ai/ha, scale 0 to 100, 0 no effect, 100 complete control
[19] = Preemergence, 8 g ai/ha, scale 0 to 100 (0 no effect, 100 complete control)
[20] = Preemergence, 31 g ai/ha, scale 0 to 100 (0 no effect, 100 complete control)
[21] = Preemergence, 62 g ai/ha, 0 to 100 scale, 0 no effect, 100 complete control
[22] = Preemergence, 16 g ai/ha, scale 0 to 100
[23] = Postemergence, 16 g ai/ha, scale 0 to 100
[24] = 8 g ai/ha, scale 0 to 100 (0 no effect, 100 complete control)
[25] = 31 g ai/ha, scale 0 to 100 (0 no effect, 100 complete control)
[26] = 62 g ai/ha, 0 to 100 scale, 0 no effect, 100 complete control

Q: What does the source list for `Cc1nn(C)c(=O)c(-n2nc(-c3ccc(Br)cc3)cc2C)c1O` [Compound 81]?
A: Barley plant response rating [1, 15]: 10; Plant response rating, Barley ([1]; 16 g ai/ha): 15; Plant response rating, Barley ([1]; 31 g ai/ha): 70; Plant response rating, Barley ([1]; 62 g ai/ha): 98; Windgrass plant response rating ([2]; 8 g ai/ha): 45; Windgrass plant response rating ([2]; 16 g ai/ha): 80; Plant response rating, Windgrass ([2]; 31 g ai/ha, scale 0 to 100): 85; Plant response rating, Windgrass ([2]; 62 g ai/ha, scale 0 to 100, 0 no effect, 100 complete control): 95; Lambsquarters plant response rating [3, 15]: 0; Lambsquarters plant response rating [3, 16]: 0; Plant response rating, Lambsquarters [3, 17]: 0; Plant response rating, Lambsquarters [3, 18]: 0; Lambsquarters plant response rating [3, 19]: 0; Plant response rating, Lambsquarters [3, 20]: 0; Plant response rating, Lambsquarters [3, 21]: 0; Lambsquarters plant response rating [3, 22]: 0; Nutsedge, Yellow plant response rating [4, 15]: 0; Nutsedge, Yellow plant response rating [4, 16]: 0; Plant response rating, Nutsedge, Yellow [4, 17]: 0; Plant response rating, Nutsedge, Yellow [4, 18]: 0; Nutsedge, Yellow plant response rating [4, 19]: 0; Plant response rating, Nutsedge, Yellow [4, 20]: 0; Plant response rating, Nutsedge, Yellow [4, 21]: 0; Nutsedge, Yellow plant response rating [4, 22]: 0; Blackgrass plant response rating [5, 15]: 85; Plant response rating, Blackgrass [5, 23]: 90; Plant response rating, Blackgrass [5, 17]: 98; Plant response rating, Blackgrass [5, 18]: 100; Blackgrass plant response rating [5, 19]: 80; Plant response rating, Blackgrass [5, 20]: 100; Plant response rating, Blackgrass [5, 21]: 100; Blackgrass plant response rating [5, 22]: 85; Sunflower plant response rating [6, 24]: 0; Plant response rating, Sunflower [6, 25]: 15; Plant response rating, Sunflower [6, 26]: 20; Sunflower plant response rating ([6]; 16 g ai/ha, scale 0 to 100): 0; Wheat plant response rating [7, 15]: 30; Wheat plant response rating [7, 16]: 55; Plant response rating, Wheat [7, 17]: 95; Plant response rating, Wheat [7, 18]: 100; Wheat plant response rating [7, 19]: 0; Plant response rating, Wheat [7, 20]: 50; Plant response rating, Wheat [7, 21]: 85; Wheat plant response rating [7, 22]: 5; Crabgrass, Large plant response rating [8, 15]: 50; Plant response rating, Crabgrass, Large [8, 23]: 98; Plant response rating, Crabgrass, Large [8, 17]: 100; Plant response rating, Crabgrass, Large [8, 18]: 100; Crabgrass, Large plant response rating [8, 19]: 65; Plant response rating, Crabgrass, Large [8, 20]: 100; Plant response rating, Crabgrass, Large [8, 21]: 100; Crabgrass, Large plant response rating [8, 22]: 98; Galium plant response rating [9, 24]: 0; Plant response rating, Galium [9, 25]: 0; Plant response rating, Galium [9, 26]: 0; Galium plant response rating ([9]; 16 g ai/ha, scale 0 to 100): 0; Johnsongrass plant response rating [10, 15]: 75; Johnsongrass plant response rating [10, 16]: 95; Plant response rating, Johnsongrass [10, 18]: 100; Johnsongrass plant response rating [10, 19]: 60; Plant response rating, Johnsongrass [10, 20]: 95; Plant response rating, Johnsongrass [10, 21]: 95; Johnsongrass plant response rating [10, 22]: 80; Ragweed plant response rating [11, 15]: 0; Ragweed plant response rating [11, 16]: 0; Plant response rating, Ragweed [11, 17]: 0; Plant response rating, Ragweed [11, 18]: 20; Ragweed plant response rating [11, 19]: 0; Plant response rating, Ragweed [11, 20]: 0; Plant response rating, Ragweed [11, 21]: 0; Ragweed plant response rating [11, 22]: 0; Oat, Wild plant response rating (wild oat (Avena fatua); [15]): 80; Oat, Wild plant response rating (wild oat (Avena fatua); [16]): 95; Plant response rating, Oat, Wild (wild oat (Avena fatua); [17]): 100; Plant response rating, Oat, Wild (wild oat (Avena fatua); [18]): 100; Oat, Wild plant response rating (wild oat (Avena fatua); [19]): 45; Plant response rating, Oat, Wild (wild oat (Avena fatua); [20]): 70; Plant response rating, Oat, Wild (wild oat (Avena fatua); [21]): 85; Oat, Wild plant response rating (wild oat (Avena fatua); [22]): 60; Foxtail, Giant plant response rating [12, 15]: 80; Plant response rating, Foxtail, Giant [12, 23]: 85; Plant response rating, Foxtail, Giant [12, 17]: 98; Plant response rating, Foxtail, Giant [12, 18]: 100; Foxtail, Giant plant response rating [12, 19]: 80; Plant response rating, Foxtail, Giant [12, 20]: 100; Plant response rating, Foxtail, Giant [12, 21]: 100; Foxtail, Giant plant response rating [12, 22]: 100; Cocklebur plant response rating [13, 15]: 0; Plant response rating, Cocklebur [13, 23]: 0; Plant response rating, Cocklebur [13, 17]: 0; Plant response rating, Cocklebur [13, 18]: 0; Cocklebur plant response rating [13, 19]: 0; Plant response rating, Cocklebur [13, 20]: 0; Plant response rating, Cocklebur [13, 21]: 0; Cocklebur plant response rating [13, 22]: 0; Goosegrass plant response rating [14, 15]: 65; Goosegrass plant response rating [14, 16]: 70; Plant response rating, Goosegrass [14, 17]: 80; Plant response rating, Goosegrass [14, 18]: 85; Goosegrass plant response rating [14, 19]: 80; Plant response rating, Goosegrass [14, 20]: 100; Plant response rating, Goosegrass [14, 21]: 100; Goosegrass plant response rating [14, 22]: 98

Reference: US20100267561A1, “HERBICIDAL PYRIDAZINONE DERIVATIVES” (priority 2007, published 2010)
